How the values were obtained:
MAGL [1] = target: T1, MAGL (Mus musculus (Mouse), UniProt O35678); test: In vitro competitive activity-based protein profiling, MAGL (mouse); assay type: biochemical; details: for inhibition at 1 µM: read-out: MAGL % inh. 1 μM (mouse)
In short: (§1)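 Residual MAGL and FAAH activity quantified from fluorescent gel bands after SDS-PAGE. Before that, FP-Rh or HT-01 probe (50 μM stock) labelled for 30 min at 37 °C, following 30 min inhibitor preincubation. Mouse assays used brain membrane fraction or cell lysates, human used prefrontal cortex or cell membranes, all at 1.0 mg/mL protein.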

MAGL [2] = target: T1, MAGL; test: Mouse brain proteomes from inhibitor treated mice (oral gavage, 4 h), MAGL; assay type: in vivo; details: read-out: MAGL % inh. 5 mg/kg (mouse)
Experimental: Preparation of Mouse Brain Proteomes from Inhibitor Treated Mice.
Inhibitors were administered to wild-type C57Bl/6J by oral gavage in a vehicle of polyethylene glycol. Each animal was sacrificed 4 h following administration and brain proteomes were prepared and analyzed according to previously established methods (See Niphakis, M. J., et al. (2011) ACS Chem. Neurosci. and Long, J. Z., et al. Nat. Chem. Biol. 5:37-44).

FAAH [3] = target: FAAH (Mus musculus (Mouse), UniProt O08914); test: In vitro competitive activity-based protein profiling, FAAH (mouse); assay type: biochemical; details: for inhibition at 1 µM: read-out: FAAH % inh. 1 μM (mouse)
Sequence of FAAH (Mus musculus (Mouse), UniProt O08914) (O08914 whole entry): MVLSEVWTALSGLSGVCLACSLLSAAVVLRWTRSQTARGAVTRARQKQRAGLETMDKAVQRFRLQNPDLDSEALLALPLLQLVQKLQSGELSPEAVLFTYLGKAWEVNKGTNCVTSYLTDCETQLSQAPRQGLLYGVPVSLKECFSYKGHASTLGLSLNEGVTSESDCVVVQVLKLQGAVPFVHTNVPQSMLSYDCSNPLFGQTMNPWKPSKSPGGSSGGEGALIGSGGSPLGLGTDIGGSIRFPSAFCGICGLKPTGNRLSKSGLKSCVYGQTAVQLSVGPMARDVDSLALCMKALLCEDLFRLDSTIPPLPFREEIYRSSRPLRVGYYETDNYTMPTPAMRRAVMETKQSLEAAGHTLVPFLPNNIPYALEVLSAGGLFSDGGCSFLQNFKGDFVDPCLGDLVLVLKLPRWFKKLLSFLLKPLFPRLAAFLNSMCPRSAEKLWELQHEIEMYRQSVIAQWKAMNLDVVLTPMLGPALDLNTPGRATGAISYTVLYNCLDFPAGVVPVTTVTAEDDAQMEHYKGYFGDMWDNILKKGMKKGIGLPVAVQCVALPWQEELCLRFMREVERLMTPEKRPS
In short: as §1

MAGL [4] = target: MAGL (Homo sapiens (Human), UniProt Q99685); test: In vitro competitive activity-based protein profiling, MAGL (human); assay type: biochemical; details: 10 μM, human proteome; read-out: MAGL % inh. 10 μM (human)
Sequence of MAGL (Homo sapiens (Human), UniProt Q99685) (Q99685 whole entry): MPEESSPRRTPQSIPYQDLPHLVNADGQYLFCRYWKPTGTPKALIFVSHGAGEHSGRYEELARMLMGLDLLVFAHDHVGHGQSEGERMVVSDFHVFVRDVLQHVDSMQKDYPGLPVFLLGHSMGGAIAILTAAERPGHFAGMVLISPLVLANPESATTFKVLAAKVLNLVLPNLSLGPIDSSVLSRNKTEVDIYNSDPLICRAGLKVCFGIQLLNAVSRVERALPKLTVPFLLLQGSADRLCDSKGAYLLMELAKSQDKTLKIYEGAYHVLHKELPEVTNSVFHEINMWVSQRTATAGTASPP
Experimental: (§2) In Vitro Competitive Activity-Based Protein Profiling.
(§3) Proteomes (mouse brain membrane fraction or cell lysates for mouse assays; human prefrontal cortex or cell membrane fractions for human assays) (50 μL, 1.0 mg/mL total protein concentration) were preincubated with varying concentrations of inhibitors at 37° C. After 30 min, FP—Rh or HT-01 (1.0 μL, 50 μM in DMSO) was added and the mixture was incubated for another 30 min at 37° C. Reactions were quenched with SDS loading buffer (15 μL-4×) and run on SDS-PAGE. Following gel imaging, serine hydrolase activity was determined by measuring fluorescent intensity of gel bands corresponding to MAGL and FAAH using ImageJ 1.43u software.

FAAH [5] = target: FAAH (Homo sapiens (Human), UniProt O00519); test: In vitro competitive activity-based protein profiling, FAAH (human); assay type: biochemical; details: 10 μM, human proteome; read-out: FAAH % inh. 10 μM (human)
Sequence of FAAH (Homo sapiens (Human), UniProt O00519) (O00519 whole entry): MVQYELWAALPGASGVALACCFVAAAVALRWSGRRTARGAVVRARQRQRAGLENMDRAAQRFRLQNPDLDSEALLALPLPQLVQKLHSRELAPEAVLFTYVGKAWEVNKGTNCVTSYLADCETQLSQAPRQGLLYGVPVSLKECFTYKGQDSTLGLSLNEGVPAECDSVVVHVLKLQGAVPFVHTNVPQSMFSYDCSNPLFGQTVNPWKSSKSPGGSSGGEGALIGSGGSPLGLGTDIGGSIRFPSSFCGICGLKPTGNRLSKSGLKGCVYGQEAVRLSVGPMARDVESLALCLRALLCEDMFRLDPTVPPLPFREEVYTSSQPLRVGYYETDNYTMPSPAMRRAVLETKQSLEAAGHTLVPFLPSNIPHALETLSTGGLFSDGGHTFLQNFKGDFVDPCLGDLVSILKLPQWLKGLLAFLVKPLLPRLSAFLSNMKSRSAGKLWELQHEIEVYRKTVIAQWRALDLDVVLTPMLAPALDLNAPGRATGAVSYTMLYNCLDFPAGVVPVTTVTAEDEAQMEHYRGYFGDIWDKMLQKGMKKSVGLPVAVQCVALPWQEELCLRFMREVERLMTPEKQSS
Experimental: as §2, §3

T1 sequence (O35678 whole entry): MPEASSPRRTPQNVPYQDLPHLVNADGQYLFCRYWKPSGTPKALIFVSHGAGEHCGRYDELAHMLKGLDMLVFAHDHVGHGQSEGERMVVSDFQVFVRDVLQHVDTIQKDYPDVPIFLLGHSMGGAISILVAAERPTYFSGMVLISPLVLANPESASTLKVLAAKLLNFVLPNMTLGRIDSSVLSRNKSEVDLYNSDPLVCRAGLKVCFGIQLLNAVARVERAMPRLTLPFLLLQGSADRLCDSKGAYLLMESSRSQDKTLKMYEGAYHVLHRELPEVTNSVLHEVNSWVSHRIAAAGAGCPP

SMILES: CC(=O)N(C)c1cnn(C(=O)N2CC3CN(Cc4ccccc4Cl)CC3C2)c1 (centres unmarked) [Example 9, N-(1-(5-(2-chlorobenzyl)octahydropyrrolo[3,4-c]pyrrole-2-carbonyl)-1H-pyrazol-4-yl)-N-methylacetamide]
- IC50 (MAGL [1]): 100 to 1000 nM
- inhibition at 1 µM (MAGL [1]): ≥ 75%
- inhibition at 5 mg/kg (MAGL [2]): 50 to 75%
- IC50 (FAAH [3]): ≤ 100 nM
- inhibition at 1 µM (FAAH [3]): ≥ 75%

SMILES: CC(=O)N(C)c1cnn(C(=O)N2CC3CN(Cc4ccc(Cl)cc4)CC3C2)c1 (centres unmarked) [Example 11, N-(1-(5-(4-chlorobenzyl)octahydropyrrolo[3,4-c]pyrrole-2-carbonyl)-1H-pyrazol-4-yl)-N-methylacetamide]
- IC50 (MAGL [1]): 100 to 1000 nM
- inhibition at 1 µM (MAGL [1]): ≥ 75%
- inhibition at 5 mg/kg (MAGL [2]): ≥ 75%
- IC50 (FAAH [3]): ≤ 100 nM
- inhibition at 1 µM (FAAH [3]): ≥ 75%

SMILES: CC(=O)N(C)c1cnn(C(=O)N2CCC3(CCN(Cc4ccccc4Cl)C3)C2)c1 (centres unmarked) [Example 50, N-(1-(7-(2-chlorobenzyl)-2,7-diazaspiro[4.4]nonane-2-carbonyl)-1H-pyrazol-4-yl)-N-methylacetamide]
- IC50 (MAGL [1]): 100 to 1000 nM
- inhibition at 1 µM (MAGL [1]): 50 to 75%
- inhibition at 5 mg/kg (MAGL [2]): ≥ 75%
- IC50 (FAAH [3]): ≤ 100 nM
- inhibition at 1 µM (FAAH [3]): ≥ 75%

SMILES: CC(=O)N(C)c1cnn(C(=O)N2CCC3(CCN(Cc4ccccc4C(F)(F)F)C3)C2)c1 (centres unmarked) [Example 58, N-methyl-N-(1-(7-(2-(trifluoromethyl)benzyl)-2,7-diazaspiro[4.4]nonane-2-carbonyl)-1H-pyrazol-4-yl)acetamide]
- IC50 (MAGL [1]): 100 to 1000 nM
- inhibition at 1 µM (MAGL [1]): ≥ 75%
- inhibition at 5 mg/kg (MAGL [2]): ≥ 75%
- IC50 (FAAH [3]): ≤ 100 nM
- inhibition at 1 µM (FAAH [3]): ≥ 75%

SMILES: CC(=O)N(C)c1cnn(C(=O)N2C[C@H]3C[C@@H](NCc4cccc(Cl)c4)C[C@H]3C2)c1 [Example 134, N-(1-(cis-5-(3-chlorobenzylamino)octahydrocyclopenta[c]pyrrole-2-carbonyl)-1H-pyrazol-4-yl)-N-methylacetamide]
- inhibition at 1 µM (MAGL [1]): 0 to 25%
- inhibition at 10 µM (MAGL [4]): ≥ 75%
- inhibition at 1 µM (FAAH [3]): ≥ 75%
- inhibition at 10 µM (FAAH [5]): ≥ 75%

SMILES: CC(=O)N(C)c1cnn(C(=O)N2C[C@H]3C[C@H](N(C)Cc4ccc(Cl)cc4)C[C@H]3C2)c1 [Example 148, N-(1-(trans-5-((4-chlorobenzyl)(methyl)amino)octahydrocyclopenta[c]pyrrole-2-carbonyl)-1H-pyrazol-4-yl)-N-methylacetamide]
- IC50 (MAGL [1]): ≤ 100 nM
- inhibition at 1 µM (MAGL [1]): ≥ 75%
- inhibition at 5 mg/kg (MAGL [2]): ≥ 75%
- IC50 (FAAH [3]): ≤ 100 nM
- inhibition at 1 µM (FAAH [3]): ≥ 75%

SMILES: CC(=O)N(C)c1cnn(C(=O)N2C[C@H]3C[C@H](N(Cc4ccccc4Cl)C(C)=O)C[C@H]3C2)c1 [Example 172, N-(2-chlorobenzyl)-N-(trans-2-(4-(N-methylacetamido)-1H-pyrazole-1-carbonyl)octahydrocyclopenta[c]pyrrol-5-yl)acetamide]
- IC50 (MAGL [1]): ≤ 100 nM
- inhibition at 1 µM (MAGL [1]): ≥ 75%
- inhibition at 5 mg/kg (MAGL [2]): 0 to 25%
- IC50 (FAAH [3]): 1000 to 10000 nM
- inhibition at 1 µM (FAAH [3]): 0 to 25%

SMILES: COc1ccccc1CN1CC2CN(C(=O)n3cc(N(C)C(C)=O)cn3)CC2C1 (centres unmarked) [Example 183, N-(1-(5-(2-methoxybenzyl)octahydropyrrolo[3,4-c]pyrrole-2-carbonyl)-1H-pyrazol-4-yl)-N-methylacetamide]
- inhibition at 1 µM (MAGL [1]): 0 to 25%
- inhibition at 10 µM (MAGL [4]): ≥ 75%
- inhibition at 1 µM (FAAH [3]): ≥ 75%
- inhibition at 10 µM (FAAH [5]): ≥ 75%

SMILES: CC(=O)Nc1cnn(C(=O)N2CCN(Cc3ccc(C(F)(F)F)cc3N3CCCC3)CC2)c1 [Example 217, N-(1-(4-(2-(pyrrolidin-1-yl)-4-(trifluoromethyl)benzyl)piperazine-1-carbonyl)-1H-pyrazol-4-yl)acetamide]
- IC50 (MAGL [1]): ≤ 100 nM
- inhibition at 1 µM (MAGL [1]): ≥ 75%
- inhibition at 5 mg/kg (MAGL [2]): ≥ 75%
- IC50 (FAAH [3]): 1000 to 10000 nM
- inhibition at 1 µM (FAAH [3]): 25 to 50%

SMILES: Cc1cc(-c2ccccc2)ccc1CN1CCN(C(=O)n2cc(NS(C)(=O)=O)cn2)CC1 [Example 219, N-(1-(4-((3-methyl-[1,1′-biphenyl]-4-yl)methyl)piperazine-1-carbonyl)-1H-pyrazol-4-yl)methanesulfonamide]
- IC50 (MAGL [1]): 1000 to 10000 nM
- inhibition at 1 µM (MAGL [1]): ≥ 75%
- inhibition at 5 mg/kg (MAGL [2]): ≥ 75%
- IC50 (FAAH [3]): ≤ 100 nM
- inhibition at 1 µM (FAAH [3]): ≥ 75%

SMILES: CC(=O)N(C)c1cnn(C(=O)N2CC3(CCN(Cc4ccc(-c5ccccc5)cc4C)CC3)C2)c1 [Example 222, N-methyl-N-(1-(7-((3-methyl-[1,1′-biphenyl]-4-yl)methyl)-2,7-diazaspiro[3.5]nonane-2-carbonyl)-1H-pyrazol-4-yl)acetamide]
- inhibition at 1 µM (MAGL [1]): 0 to 25%
- inhibition at 10 µM (MAGL [4]): ≥ 75%
- inhibition at 1 µM (FAAH [3]): ≥ 75%
- inhibition at 10 µM (FAAH [5]): 50 to 75%

SMILES: CC(=O)N(C)c1cnn(C(=O)N2CC3CN(Cc4ccc(CN5CCOCC5)cc4)CC3C2)c1 (centres unmarked) [Example 225, N-methyl-N-(1-(5-(4-(morpholinomethyl)benzyl)octahydropyrrolo[3,4-c]pyrrole-2-carbonyl)-1H-pyrazol-4-yl)acetamide]
- inhibition at 1 µM (MAGL [1]): 0 to 25%
- inhibition at 10 µM (MAGL [4]): ≥ 75%
- inhibition at 1 µM (FAAH [3]): 25 to 50%
- inhibition at 10 µM (FAAH [5]): ≥ 75%

SMILES: CC(=O)N(C)c1cnn(C(=O)N2CCC3(CCN(Cc4ccc(CN5CCOCC5)cc4)C3)C2)c1 (centres unmarked) [Example 231, N-methyl-N-(1-(7-(4-(morpholinomethyl)benzyl)-2,7-diazaspiro[4.4]nonane-2-carbonyl)-1H-pyrazol-4-yl)acetamide]
- inhibition at 1 µM (MAGL [1]): 0 to 25%
- inhibition at 10 µM (MAGL [4]): ≥ 75%
- inhibition at 1 µM (FAAH [3]): 0 to 25%
- inhibition at 10 µM (FAAH [5]): 25 to 50%

SMILES: CC(=O)N(C)c1cnn(C(=O)N2CCC3(CCN(Cc4cccc(Oc5ccccc5)c4)C3)C2)c1 (centres unmarked) [Example 236, N-methyl-N-(1-(7-(3-phenoxybenzyl)-2,7-diazaspiro[4.4]nonane-2-carbonyl)-1H-pyrazol-4-yl)acetamide]
- IC50 (MAGL [1]): 100 to 1000 nM
- inhibition at 1 µM (MAGL [1]): ≥ 75%
- inhibition at 5 mg/kg (MAGL [2]): 25 to 50%
- IC50 (FAAH [3]): ≤ 100 nM
- inhibition at 1 µM (FAAH [3]): ≥ 75%

SMILES: CC(=O)N(C)c1cnn(C(=O)N2CC3CN(Cc4ccc(Oc5cncnc5)cc4Cl)CC3C2)c1 (centres unmarked) [Example 274, N-(1-(5-(2-chloro-4-(pyrimidin-5-yloxy)benzyl)octahydropyrrolo[3,4-c]pyrrole-2-carbonyl)-1H-pyrazol-4-yl)-N-methylacetamide]
- IC50 (MAGL [1]): ≤ 100 nM
- inhibition at 1 µM (MAGL [1]): ≥ 75%
- inhibition at 5 mg/kg (MAGL [2]): 0 to 25%
- IC50 (FAAH [3]): 100 to 1000 nM
- inhibition at 1 µM (FAAH [3]): ≥ 75%

SMILES: CS(=O)(=O)Nc1cnn(C(=O)N2CCN(Cc3ccc(N4CCCC4)cc3C(F)(F)F)CC2)c1 [Example 292, N-(1-(4-(4-(pyrrolidin-1-yl)-2-(trifluoromethyl)benzyl)piperazine-1-carbonyl)-1H-pyrazol-4-yl)methanesulfonamide]
- IC50 (MAGL [1]): ≤ 100 nM
- inhibition at 1 µM (MAGL [1]): 25 to 50%
- inhibition at 5 mg/kg (MAGL [2]): 50 to 75%
- IC50 (FAAH [3]): 1000 to 10000 nM
- inhibition at 1 µM (FAAH [3]): ≥ 75%

SMILES: CS(=O)(=O)Nc1cnn(C(=O)N2CCC3(CCN(Cc4cc(Cl)cc(C(F)(F)F)c4)C3)CC2)c1 [Example 297, N-(1-(2-(3-chloro-5-(trifluoromethyl)benzyl)-2,8-diazaspiro[4.5]decane-8-carbonyl)-1H-pyrazol-4-yl)methanesulfonamide]
- IC50 (MAGL [1]): ≤ 100 nM
- inhibition at 1 µM (MAGL [1]): ≥ 75%
- inhibition at 5 mg/kg (MAGL [2]): ≥ 75%
- IC50 (FAAH [3]): ≤ 100 nM
- inhibition at 1 µM (FAAH [3]): ≥ 75%

SMILES: CC(=O)Nc1cnn(C(=O)N2CCC3(CCN(Cc4cc(Cl)cc(C(F)(F)F)c4)C3)CC2)c1 [Example 313, N-(1-(2-(3-chloro-5-(trifluoromethyl)benzyl)-2,8-diazaspiro[4.5]decane-8-carbonyl)-1H-pyrazol-4-yl)acetamide]
- inhibition at 1 µM (MAGL [1]): ≥ 75%
- inhibition at 5 mg/kg (MAGL [2]): ≥ 75%
- inhibition at 1 µM (FAAH [3]): ≥ 75%

Source: patent US10323038B2, “Pyrazole compounds and methods of making and using same” (ABIDE THERAPEUTICS, INC., priority 2015, dated 2019)
